Data from patent US20230381170A1, “METHOD FOR TREATING ALS/FTD THROUGH DEGRADATION OF RNA REPEAT EXPANSION” (University of Florida Research Foundation, Incorporated, priority 2020, published 2023).
Like-named read-outs stand apart in the source and are kept apart here.

Tests used:
[1] = biological target: T1, ternary complex r(G4C2)66, RNase L and 7 (Homo sapiens, UniProt Q05823); experiment: RNase L RNA immunoprecipitation in HEK293T cells; format: cell-based; details: 500 nM, compared to vehicle
T1 construct: for degradation by recruiting the endogenous nuclease Rnase L; endogenous in cells; host or cells: HEK293T cells transfected with the (G4C2)66-No ATG-GFP plasmid (RNA only)
Procedure: RNA Immunoprecipitation. HEK293T cells were transfected with (G4C2)66-No ATG-GFP plasmid as described above, split into in 6-well plates, grown to ˜70% confluency, and treated with 500 nM 7 diluted in growth media for 24 h. The cell was washed with 1×PBS, removed from the plate with Accutase (Innovative Cell Technologies, Inc.), and then washed with 1×PBS. Cells were then lysed in 100 μL of M-PER buffer supplemented with 80 U RNaseOUT Recombinant Ribonuclease Inhibitor (Invitrogen) and 1× Protease Inhibitor Cocktail III for Mammalian Cells (Research Products International Corp.) per manufacturer's recommendations. The protein samples were tumbled overnight at 4° C. with Dynabeads Protein A (Life Technologies) that were bound to either β-actin mouse primary antibody (Cell Signaling Technologies; 3700S) or Rnase L mouse primary antibody (Santa Cruz Biotechnology; sc-74405). After antibody incubation, the beads were washed three times with 1×PBS supplemented with 0.02% Tween-20 and total RNA was extracted from beads using a miRNeasy Mini Kit (Qiagen) according to manufacturer's instructions.
Relative RNA expression levels before and after pull-down were determined by the ΔΔCt method and normalized to β-actin as a housekeeping gene.

[2] = tested on: C9orf72 intron 1; experiment: C9orf72 intron 1 RT-qPCR in LCLs from a healthy donor; format: cell-based, human
Procedure: Measuring Levels of C9orf72 and C9orf72 Variants by RT-qPCR. LCLs were seeded in 6-well plate (˜10^6 cells in 2 mL of growth medium) and incubated overnight at 37° C. Cells were then treated with various concentrations of compound for 24 h or with G4C2-ASO and Control-ASO (100 nM), delivered by transfection with Lipofectamine RNAiMax. RNA was extracted as described above and the expression of C9orf72 variants was determined by RT-qPCR. […] For compound treatment well, medium change was performed with fresh compound every 3-4 days. RNA was extracted as described above and the expression of C9orf72 variants was determined by RT-qPCR.

[3] = tested on: r(G4C2)66-No ATG-GFP mRNA; experiment: RNA levels in transfected HEK293T cells by RT-qPCR; format: cell-based, human
Procedure: Measuring RNA Levels in HEK Cells. HEK293T cells were seeded at 2×10^6 in 100 mm dish and incubated at 37° C. overnight. Cells were transfected with 2.5 μg of the (G4C2)66-No ATG-GFP plasmid with Lipofectamine 3000 (Life Technologies) per the manufacturer's protocols. After 5 h, the cells were collected and split into 24-well plate with 5×10^4 cells per well. After 2 h, the compounds were added and incubated for another 24 h.
Total RNA was extracted using a Quick-RNA Miniprep Kit (Zymo Research) per the manufacturer's protocol. Approximately 1 μg of total RNA, as determined by Nanodrop, was used for reverse transcription using qScript Kit (Quantbio) per the manufacturer's protocol. RT-qPCR was performed on a 7900HT Fast Real Time PCR System (Applied Biosystem) using Power SYBR Green Master Mix (Applied Biosystems). Expression levels of mRNAs were normalized to β-actin.
Rnase L Knockdown. HEK293T cells were seeded in growth medium in a 100 mm dish and incubated at 37° C. until ˜80% confluent. Cells were transfected with 2.5 µg (G4C2)66-No-ATG-GFP for 5 h with Lipofectamine 3000 (Life Technologies) per the manufacturer's recommended protocol. Following transfection, the cells were plated in 6-well plates and incubated at 37° C. until ˜80% confluent. Compounds were added in growth medium and incubated for 24 h. Following compound treatment, the siRNA of interest (Table 3) were transfected with RNAiMax (Life Technologies) at a final concentration of 50 nM for 24 h per the manufacturer's recommended protocol. Total RNA was extracted using a Quick-RNA Miniprep Kit (Zymo Research) per the manufacturer's protocol. Intron 1 abundance was assessed by RT-qPCR as described above.

[4] = tested on: r(G2C2)10; experiment: Biolayer interferometry (BLI) binding
Procedure: (§1) Biolayer Interferometry (BLI). BLI studies were performed similarly as previously described (12) using an Octet RED96. Briefly, 5′-biotinylated nucleic acids were folded by heating at 95° C. for 4 min in 10 mM sodium phosphate buffer, pH 7, followed by slowly cooling to room temperature. Then, to the folded RNA were added the following components: 1.386 mL 1×DPBS (21-031-CV, Corning), 180 μL freshly prepared 1% (w/v) BSA, 36 μL 1% (v/v) Tween-20, and 18 μL DMSO (1% final concentration) in a final volume of 1.8 mL. The final concentration of RNA was 0.5 μM. Separately, serial dilutions of the compound of interest were prepared in the same buffer.
(§2) Streptavidin sensors (SA, #18-5019, ForteBio) were equilibrated with buffer for 10 min at room temperature using 96-well black microplate (Greiner; Catalog #: 655209). The following time intervals were used during data acquisition (30° C. with shaking at 1000 rpm): baseline step, 180 s; loading of RNA, 900 s; washing, 180 s; association of compound, 1800 s; and dissociation of compound, 1800 s. The resulting curves were analyzed and processed using Octet Data Analysis software version 9.1 by subtracting the response of the sensors recorded upon incubation with solutions containing compound and no RNA (parallel reference). The data were then fitted assuming reversible binding using the entire time interval for association and dissociation using either 1:1 or the 2:1 heterogeneous binding curve fitting model. The reported Kd,n, kon,n and koff,n values represent the average of two independent experiments.

[5] = tested on: d(G4C2)8; experiment: Biolayer interferometry (BLI) binding; details: for Kd: BLI
Procedure: as §1, §2

[6] = tested on: r(G2C4)8; experiment: Biolayer interferometry (BLI) binding
Procedure: as §1, §2

T1 sequence (Q05823 whole entry, one chain of several): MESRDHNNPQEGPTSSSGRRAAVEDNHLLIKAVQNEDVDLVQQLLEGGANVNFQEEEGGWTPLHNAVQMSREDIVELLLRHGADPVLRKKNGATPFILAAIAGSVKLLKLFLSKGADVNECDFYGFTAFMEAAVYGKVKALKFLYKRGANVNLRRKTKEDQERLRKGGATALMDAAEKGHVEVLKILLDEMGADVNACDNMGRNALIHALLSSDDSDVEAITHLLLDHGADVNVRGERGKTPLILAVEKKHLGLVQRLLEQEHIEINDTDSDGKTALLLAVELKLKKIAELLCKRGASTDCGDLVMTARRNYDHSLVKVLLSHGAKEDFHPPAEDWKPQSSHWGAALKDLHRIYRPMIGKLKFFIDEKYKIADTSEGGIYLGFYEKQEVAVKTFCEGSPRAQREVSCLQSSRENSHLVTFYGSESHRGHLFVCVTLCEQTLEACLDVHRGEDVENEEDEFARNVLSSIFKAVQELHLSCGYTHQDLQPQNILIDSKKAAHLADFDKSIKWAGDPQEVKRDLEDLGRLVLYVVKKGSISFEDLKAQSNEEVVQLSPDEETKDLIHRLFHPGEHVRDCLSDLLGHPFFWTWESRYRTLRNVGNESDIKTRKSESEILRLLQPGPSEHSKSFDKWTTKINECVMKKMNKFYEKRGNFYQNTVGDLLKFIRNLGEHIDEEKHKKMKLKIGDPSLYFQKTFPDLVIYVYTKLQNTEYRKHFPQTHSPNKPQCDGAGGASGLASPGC

enrichment of r(G4C2)exp-containing mRNA in anti-Rnase L immunoprecipitated fractions [1]	selective for r(G4C2)8 over r(G2C2)10 [4]	Kd ([4]; BLI, read-out: Kd, 1)	selective for r(G4C2)8 over d(G4C2)8 [5]	Kd ([5]; read-out: Kd, 1)	Kd ([5]; read-out: Kd, 2)	selective for r(G4C2)8 over r(G2C4)8 [6]	Kd ([6]; BLI, read-out: Kd, 1)	SMILES	C9orf72 intron 1 levels [2]	reduction of r(G4C2)exp-containing mRNA ([3]; 500 nM compound)	ability to reduce r(G4C2)exp levels upon knock down of Rnase L by siRNA ([3]; RNase L siRNA versus control siRNA)	r(G4C2)66 levels ([3]; HEK293T)
~2 fold	–	–	–	–	–	–	–	CCOC(=O)C1=C(Nc2ccccc2)S/C(=C\c2ccc(OCCOCCOCCOCCNC(=O)CCC(=O)N(CCOCCOCCOc3ccc4[nH]c5c(C)c6ccncc6c(C)c5c4c3)CCOCCOCCOc3ccc4[nH]c5c(C)c6ccncc6c(C)c5c4c3)c(O)c2)C1=O [Compound 7]	did not affect	46±2%	ablated	–
–	~200 fold	0.8 µM	~225 fold	0.9 µM	3.6 µM	~10 fold	0.4 µM	Cc1c2ccncc2c(C)c2c1[nH]c1ccc(OCCOCCOCCNCCOCCOCCOc3ccc4[nH]c5c(C)c6ccncc6c(C)c5c4c3)cc12 [Compound 3]	–	–	–	without affecting
